Results as given in patent publication US9657088B2, “Anti-HSV antibody” (priority 2009, dated 2017).
“Also recorded” adds a separate entry of the source. Like-named read-outs stand apart in the source and are kept apart here.

Key:
gB derived peptides = format: binding, HSV-1
HSV-1 = assay: Plaque-reduction assay with or without human complement; format: cell-based; details: 2 μg/ml, with or without 10% human complement
HSV1 strain 342 hv [1] = assay: Intravaginal HSV1 infection of C57BL/6J mice, i.p. antibody; format: in vivo; details: i.p. post infection
From the text: Therefore, C57BL/6J mice were infected by application of the HSV1 strain 342 hv on the intact vaginal mucosa membrane.

HSV-1 F [2] = assay: Virus neutralization end-point dilution assay on Vero cells, 100 TCID50; format: cell-based; details: Table 4, read-out: concentration required for 50% neutralization
Experimental: (§1) Neutralizing activity of antibodies were determined by a standard end-point dilution assay using Vero cells grown as monolayers in microtiter plates. […] After 72 h incubation at 37° C. the antibody concentration required to prevent the formation of virus-induced CPE to 100% was determined as complete neutralization titer.
(§2) Neutralizing activity of antibodies was determined by end-point dilution assay as described previously (16). Briefly, serial dilutions of antibodies were incubated with 100 TCID50 of HSV-1 or HSV-2 for 1 h at 37° C. in cell culture medium. The antibody virus inoculum was applied to Vero cell monolayers grown in microtiter plates and cytopathic effect (CPE) was scored after 72 h incubation at 37° C. The antibody concentration required for reducing virus-induced CPE by 100% was determined as complete neutralization titer. […] For control purposes virus without antibody and antibody alone was used to induce maximal CPE or no CPE, respectively.

HSV-2 G = assay: as above; format: cell-based; details: 100% reduction of CPE, 72 h
Experimental: as §1, §2

HSV1 strain 342 hv [3] = details: administration 24 h prior to viral inoculation; cited from earlier work
[4] = test system: HSV-1 wild-type strains and gB mutant viruses; assay: Mouse protection experiments with gB mutant viruses; format: in vivo, C57BL/6 mice; details: i.p. 24 hours before
[5] = test system: truncated HSV-1 glycoprotein B (gB) expressed in COS-1 cells; format: binding
HSV-1 F [6] = assay: Pre- versus post-attachment neutralization assay; format: cell-based; details: 100 TCID50 HSV-1, 4° C., Vero cells
Experimental: The highest antibody and polyvalent human IgG titer, respectively, preventing virus induced cytopathic effect (CPE) in ten individual inoculated cell monolayers to 100% and 50% relative to controls were determined after 72 h incubation at 37° C. and being considered as the endpoint. Standard errors of the mean of three independent experiments were <0.1.
Neutralization titers were determined after 72 h as described in the standard neutralization assay above.

HSV-1 F [7] = assay: Cell-to-cell spread assay in Vero cell monolayers; format: cell-based; details: 500 nM, 48 h
Experimental: Vero cells grown to confluency on glass cover slips in 24-weel tissue culture plates are infected for 4 h at 37° C. with a constant virus amount of 400 TCID50/well. One median tissue culture infective dose (1 TCID50) is the amount of a cytopathogenic agent, such as a virus, that will produce a cytopathic effect in 50% of the cell cultures inoculated. The virus inoculum is subsequently removed, the cells washed twice with PBS and further incubated for 2 days at 37° C. in 1 ml DMEM, 2% FCS, Pen/Strep containing an excess of either different anti-HSV antibodies or polyclonal anti-HSV control serum in order to prevent viral spreading via the supernatant Viral antigens of HSV-infected cells are detected with a fluorescence labelled polyclonal goat-anti-HSV-serum (BETHYL Labolatories, Montgomery, Tex. USA, Catalog No. A190-136F, Lot No. A190-136F-2).
Two days after infection spreading of the virus was detected with fluorescence labeled polyclonal goat-anti-HSV serum using a Leica DM IRE2 confocal microscope at 40-fold magnification.
For spreading within a host HSV uses two mechanisms: release of cell-free particles and direct, cell-to-cell spread. […] Viral antigens were detected by staining of HSV-1 infected cell monolayers with FITC-conjugated polyclonal goat-anti-HSV serum (BETHYL, Montgomery, Tex., USA) diluted 1:100 in blocking buffer. […]

mAb 2c: murine monoclonal IgG2a antibody specific for glycoprotein B of HSV1 and HSV2; VH SEQ ID NO: 9, VL SEQ ID NO: 10
binding strength to duotope (gB derived peptides; duotope FED-βA-βA-FYGYRE): almost saturation of the fluorescence signal intensity
binding strength to duotope (gB derived peptides; duotope YSQFMG-βA-FYGYRE versus peptide 172[…]184): only slightly increased
complement dependence of HSV neutralization (HSV-1): neutralize HSV complement-independent
inhibition of viral replication and prevention of lethal disease (HSV1 strain 342 hv [1]; CD4+ and CD8+ depleted animals): capable to inhibit viral replication as well as to prevent a generalized, lethal progressing disease with a high efficiency
inhibition of viral propagation in vaginal mucosa and inflammatory lesions (HSV1 strain 342 hv [1]; immunocompetent and CD4+ T cell depleted animals): capable of inhibiting the viral propagation in the vaginal mucosa membrane and the formation of inflammatory lesions
IC50 (HSV-1 F [2]): 4.3 nM
Concentration for complete neutralization of 100 TCID50 (HSV-2 G): 31 nM
protection against infection (HSV1 strain 342 hv [3]): efficiently protected the animals against infection
protective effect in vivo ([4]; mice inoculated with mutants R126 (Y303N), R1375 (R304Q), B4.1 (E305K)): ineffective
protective effect in vivo ([4]; mice inoculated with mutants R1435 (H308Y) or R233 (R328H) or wild-type viruses): effective
Reactivity ([5]; gB(1-470)): −
Reactivity ([5]; gB(1-487)): +
Reactivity ([5]; gB(1-503)): +
Reactivity ([5]; gB(1-505)): +
Reactivity ([5]; gB(1-630)): +
Reactivity ([5]; gB(1-720)): +
Reactivity ([5]; gB(1-904) (full length gB)): +
Reactivity ([5]; pSVL, expression vector, negative control): −
pre-attachment versus post-attachment neutralization (HSV-1 F [6]): Equal neutralization efficacy
inhibition of cell-to-cell spread (HSV-1 F [7]): inhibit at a concentration of 500 nM the cell-to-cell spread completely; also recorded: completely abrogated HSV-1 spread
